SMILES strings stand for the structures. Several values for one entry are separate records, joined by “and”; a condition that tells them apart may be missing. Identical values can stand only once. Inconclusive results and toxic doses are left out.

The values that follow come from PubChem BioAssay AID248 (DTP/NCI, 2004).

The test concerns L1210 leukemia ip in BDF1 mice, survival T/C. As to the kind of experiment: NCI In Vivo Anticancer Drug Screen. Data for tumor model L1210 Leukemia (intraperitoneal) in B6D2F1 (BDF1) mice. The note with it: higher = longer survival. The essentials:
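Transplantable tumor model; survival measured in treated vs vehicle control mice. Value = treated/control.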

Where [1] appears, read: endpoint: mean survival time, dose: 100.0 mg/kg/injection, schedule: Q01DX009 (ip), vehicle: saline.
Setting [2] is: endpoint: mean survival time, dose: 100.0 mg/kg/injection, schedule: Q04DX003 (ip), vehicle: saline.
[3] abbreviates: endpoint: mean survival time, dose: 200.0 mg/kg/injection, schedule: Q01DX009 (ip), vehicle: saline.
Where [4] appears, read: endpoint: mean survival time, dose: 200.0 mg/kg/injection, schedule: Q04DX003 (ip), vehicle: saline.
[5] abbreviates: endpoint: mean survival time, dose: 400.0 mg/kg/injection, schedule: Q01DX009 (ip), vehicle: saline.
[6] abbreviates: endpoint: mean survival time, dose: 400.0 mg/kg/injection, schedule: Q04DX003 (ip), vehicle: saline.
Where [7] appears, read: endpoint: mean survival time, dose: 100.0 mg/kg/injection, schedule: Q01DX001 (ip), vehicle: saline with Tween-80.
Setting [8] is: endpoint: mean survival time, dose: 200.0 mg/kg/injection, schedule: Q01DX001 (ip), vehicle: saline with Tween-80.
The mark [9] stands for this setting: endpoint: mean survival time, dose: 400.0 mg/kg/injection, schedule: Q01DX001 (ip), vehicle: saline with Tween-80.

Take `O=S(=O)(O)c1ccc(O)cc1`: the T/C was 98 % of control (endpoint: mean survival time, dose: 50.0 mg/kg/injection, schedule: Q04DX003 (ip), vehicle: Klucel (hydroxypropylcellulose) (HPC)); 110 % of control under setting [1]; 104 % of control (endpoint: mean survival time, dose: 100.0 mg/kg/injection, schedule: Q04DX003 (ip), vehicle: Klucel (hydroxypropylcellulose) (HPC)); 114 % of control under setting [2]; 107 % of control under setting [3]; 124 % of control (endpoint: mean survival time, dose: 200.0 mg/kg/injection, schedule: Q04DX003 (ip), vehicle: Klucel (hydroxypropylcellulose) (HPC)). Moreover, the T/C under setting [4] is 97 % of control, the T/C under setting [5] is 101 % of control and the T/C under setting [6] was 101 % of control.

For the compound `NS(=O)(=O)c1ccc(N=Nc2nc3[nH]c(=O)[nH]c(=O)c3[nH]2)cc1`, the T/C was 97 % of control (endpoint: mean survival time, dose: 50.0 mg/kg/injection, schedule: Q01DX009 (ip), vehicle: saline with Tween-80); 94 % of control (endpoint: mean survival time, dose: 100.0 mg/kg/injection, schedule: Q01DX009 (ip), vehicle: saline with Tween-80); 94 % of control (endpoint: mean survival time, dose: 200.0 mg/kg/injection, schedule: Q01DX009 (ip), vehicle: saline with Tween-80).

`CC/C=C(CC)/C(CC)=C(/C#N)CC`: the T/C was 108 % of control under setting [2], 93 % of control under setting [4] and 98 % of control under setting [6].

Take `CCCCCCCCCCCCC1C2CCCCC2CC2CCCCC21` (stereo unspecified): the T/C was 94 % of control under setting [7], 94 % of control under setting [8] and 96 % of control under setting [9].

In the case of `O=NN(CCCl)C(=O)Nc1ccc(C(=O)O)cc1`, the T/C reads like this: (endpoint: mean survival time, dose: 1.5 mg/kg/injection, schedule: Q01DX Z (ip), vehicle: saline) 171 % of control; (endpoint: mean survival time, dose: 2.0 mg/kg/injection, schedule: Q01DX Z (ip), vehicle: saline) 162 % of control; (endpoint: mean survival time, dose: 2.5 mg/kg/injection, schedule: Q01DX001 (ip), vehicle: carboxymethylcellulose (CMC)) 118 % of control and 124 % of control; (endpoint: mean survival time, dose: 3.75 mg/kg/injection, schedule: Q## X001 (ip), vehicle: carboxymethylcellulose (CMC)) 106 % of control; (endpoint: mean survival time, dose: 4.5 mg/kg/injection, schedule: Q01DX Z (ip), vehicle: carboxymethylcellulose (CMC)) 151 % of control; (endpoint: mean survival time, dose: 5.0 mg/kg/injection, schedule: Q01DX001 (ip), vehicle: carboxymethylcellulose (CMC)) 153 % of control and 182 % of control. Besides, the T/C runs as follows: (endpoint: mean survival time, dose: 9.0 mg/kg/injection, schedule: Q01DX Z (ip), vehicle: carboxymethylcellulose (CMC)) 117 % of control; (endpoint: mean survival time, dose: 15.0 mg/kg/injection, schedule: Q01DX001 (ip), vehicle: carboxymethylcellulose (CMC)) 151 % of control and 168 % of control and 190 % of control; (endpoint: mean survival time, dose: 15.0 mg/kg/injection, schedule: Q## X001 (ip), vehicle: carboxymethylcellulose (CMC)) 152 % of control; (endpoint: mean survival time, dose: 20.0 mg/kg/injection, schedule: Q01DX001 (ip), vehicle: carboxymethylcellulose (CMC)) 152 % of control; (endpoint: mean survival time, dose: 30.0 mg/kg/injection, schedule: Q01DX001 (ip), vehicle: carboxymethylcellulose (CMC)) 218 % of control and 227 % of control; (endpoint: mean survival time, dose: 30.0 mg/kg/injection, schedule: Q## X001 (ip), vehicle: carboxymethylcellulose (CMC)) 191 % of control.

Consider `CC(=O)N(CC(=O)OCc1ccccc1)C(C)=O`, for which the T/C by setting is: under setting [1], 110 % of control; under setting [3], 103 % of control; under setting [5], 105 % of control.

With `CC1CCCCN1` (stereo unspecified), the T/C (endpoint: mean survival time, dose: 100.0 mg/kg/injection, schedule: Q04DX002 (ip), vehicle: saline) is 105 % of control; the T/C (endpoint: mean survival time, dose: 200.0 mg/kg/injection, schedule: Q04DX002 (ip), vehicle: saline) was 94 % of control; the T/C (endpoint: mean survival time, dose: 400.0 mg/kg/injection, schedule: Q04DX002 (ip), vehicle: saline) is 112 % of control.

`CCOC(=N)N1Cc2ccccc2CCc2ccccc2C1`: the T/C is, setting by setting: (endpoint: mean survival time, dose: 6.25 mg/kg/injection, schedule: Q01DX009 (ip), vehicle: Klucel (hydroxypropylcellulose) (HPC)) 95 % of control; (endpoint: mean survival time, dose: 12.5 mg/kg/injection, schedule: Q01DX009 (ip), vehicle: Klucel (hydroxypropylcellulose) (HPC)) 101 % of control; (endpoint: mean survival time, dose: 25.0 mg/kg/injection, schedule: Q01DX009 (ip), vehicle: Klucel (hydroxypropylcellulose) (HPC)) 101 % of control; (endpoint: mean survival time, dose: 25.0 mg/kg/injection, schedule: Q04DX002 (ip), vehicle: Klucel (hydroxypropylcellulose) (HPC)) 102 % of control; (endpoint: mean survival time, dose: 50.0 mg/kg/injection, schedule: Q04DX002 (ip), vehicle: Klucel (hydroxypropylcellulose) (HPC)) 97 % of control.

On to `COC1OC(Cn2cc(-c3ccccc3)nn2)C(OC(C)=O)C(OC(C)=O)C1OC(C)=O` (stereo unspecified), for which the T/C (endpoint: mean survival time, dose: 100.0 mg/kg/injection, schedule: Q01DX005 (ip), vehicle: saline) was 100 % of control and the T/C (endpoint: mean survival time, dose: 200.0 mg/kg/injection, schedule: Q01DX005 (ip), vehicle: saline) was 96 % of control.

Take `NC(=O)C1=CN(Cc2ccccc2)C=CC1`: the T/C reads like this: (endpoint: mean survival time, dose: 100.0 mg/kg/injection, schedule: Q04DX003 (ip), vehicle: saline with Tween-80) 100 % of control; (endpoint: mean survival time, dose: 200.0 mg/kg/injection, schedule: Q04DX003 (ip), vehicle: saline with Tween-80) 106 % of control; (endpoint: mean survival time, dose: 400.0 mg/kg/injection, schedule: Q04DX003 (ip), vehicle: saline with Tween-80) 94 % of control.

Consider `CC(CCC(=O)O)C1CCC2C3CCC4CC(OC=O)CCC4(C)C3CC(=O)C12C` (stereo unspecified), for which the T/C is 98 % of control under setting [7], 95 % of control under setting [8] and 101 % of control under setting [9].

As for `CC12CCC(C/C1=N\N=C(N)N)C2(C)C` (stereo unspecified), the T/C is, setting by setting: (endpoint: mean survival time, dose: 9.37 mg/kg/injection, schedule: Q01DX009 (ip), vehicle: saline) 97 % of control; (endpoint: mean survival time, dose: 18.75 mg/kg/injection, schedule: Q01DX009 (ip), vehicle: saline) 96 % of control; (endpoint: mean survival time, dose: 18.75 mg/kg/injection, schedule: Q04DX003 (ip), vehicle: saline) 102 % of control; (endpoint: mean survival time, dose: 37.5 mg/kg/injection, schedule: Q01DX009 (ip), vehicle: saline) 102 % of control; (endpoint: mean survival time, dose: 37.5 mg/kg/injection, schedule: Q04DX003 (ip), vehicle: saline) 94 % of control; (endpoint: mean survival time, dose: 75.0 mg/kg/injection, schedule: Q01DX001 (ip), vehicle: saline) 105 % of control. The T/C (endpoint: mean survival time, dose: 75.0 mg/kg/injection, schedule: Q04DX003 (ip), vehicle: saline) is 88 % of control.

`CC1CC(C)(C)C(C[NH-])C1[NH-].[Cl][Pt+2][Cl]` (stereo unspecified): the T/C was 189 % of control (endpoint: median survival time, dose: 7.5 mg/kg/injection, schedule: Q01DX009 (ip), vehicle: saline); 173 % of control (endpoint: median survival time, dose: 15.0 mg/kg/injection, schedule: Q01DX001 (ip), vehicle: saline); 205 % of control (endpoint: median survival time, dose: 15.0 mg/kg/injection, schedule: Q01DX009 (ip), vehicle: saline); 189 % of control (endpoint: median survival time, dose: 30.0 mg/kg/injection, schedule: Q01DX001 (ip), vehicle: saline); 105 % of control (endpoint: median survival time, dose: 30.0 mg/kg/injection, schedule: Q01DX009 (ip), vehicle: saline); 154 % of control (endpoint: median survival time, dose: 60.0 mg/kg/injection, schedule: Q01DX001 (ip), vehicle: saline). The T/C is, setting by setting: (endpoint: median survival time, dose: 60.0 mg/kg/injection, schedule: Q01DX009 (ip), vehicle: saline) 87 % of control; (endpoint: median survival time, dose: 120.0 mg/kg/injection, schedule: Q01DX001 (ip), vehicle: saline) 209 % of control.

Turning to `c1ccc(C2=NC(c3ccccc3)NC2c2ccccc2)cc1` (stereo unspecified), the T/C was 95 % of control (endpoint: mean survival time, dose: 25.0 mg/kg/injection, schedule: Q01DX001 (ip), vehicle: Klucel (hydroxypropylcellulose) (HPC)) and 98 % of control (endpoint: mean survival time, dose: 50.0 mg/kg/injection, schedule: Q01DX001 (ip), vehicle: Klucel (hydroxypropylcellulose) (HPC)).
